{"source": "patent US20060216238A1", "about": "“Compositions and methods for targeting or imaging a tissue in a vertebrate subject” (priority 2005, published 2006)", "key": {"[1]": {"assay": "Stability of CPMV particles in simulated gastric conditions (SGF, SIF)", "type": "in vitro ADME", "protocol": "(§1) Stability of CPMV particles in simulated gastric conditions. Simulated gastric fluid (SGF) and simulated intestinal fluid (SIF) were prepared according to Takagi et al. Takagi et al., Biol. Pharm. Bull 26:969-973, 2003. Briefly, pepsin (3.8 mg; Sigma) was dissolved into 5 ml of gastric control fluid (2 mg/ml NaCl, pH 2.0). SIF was prepared by dissolving pancreatin, (10 mg/ml; Sigma) in intestinal control fluid (0.05 M […], pH 6.8). Both solutions were used within the same day. SGF (400 μl) was first incubated at 37° C. for 2 minutes before addition of CPMV (200 μg), giving a ratio of 10 U of pepsin activity/μg of CPMV. The tube contents were mixed by mild vortexing and the tube was immediately placed in a 37° C. water bath for time points ranging from 0-60 minutes, followed by neutralization with 70 μl of 200 mM sodium bicarbonate solution. Similarly, SIF was incubated at 37° C. for 2 minutes before addition of CPMV (200 μg) and the tube contents were placed in a 37° C. water bath for time points up to 120 minutes. Aliquots of virus exposed to SGF or SIF were mixed with 5 μl of NuPAGE 4× LDS-sample buffer, run on 4-12% SDS-PAGE gels, and stained with Simply Blue Safe Stain (Invitrogen). […]"}, "[2]": {"assay": "RT-PCR detection of CPMV RNA in tissues of mice inoculated orally (gavage)", "details": "for CPMV RNA detected in bone marrow, mice positive/examined / CPMV RNA detected in brain, mice positive/examined / CPMV RNA detected in duodenum, mice positive/examined / CPMV RNA detected in ileum, mice positive/examined / CPMV RNA detected in jejunum, mice positive/examined / CPMV RNA detected in kidney, mice positive/examined / CPMV RNA detected in liver, mice positive/examined / CPMV RNA detected in lung, mice positive/examined / CPMV RNA detected in spleen, mice positive/examined / CPMV RNA detected in stomach, mice positive/examined: oral"}, "[3]": {"test_system": "cowpea plants", "assay": "Infectivity of SGF- or SIF-treated CPMV on cowpea plants", "set-up": "species or system Vigna unguiculata", "details": "SGF 60 minutes or SIF 120 minutes, day 14 post-inoculation", "protocol": "as §1"}, "[4]": {"target": "Flt-1 receptor (VEGFR1) (Homo sapiens, UniProt P17948)", "sequence (P17948 27-1338)": "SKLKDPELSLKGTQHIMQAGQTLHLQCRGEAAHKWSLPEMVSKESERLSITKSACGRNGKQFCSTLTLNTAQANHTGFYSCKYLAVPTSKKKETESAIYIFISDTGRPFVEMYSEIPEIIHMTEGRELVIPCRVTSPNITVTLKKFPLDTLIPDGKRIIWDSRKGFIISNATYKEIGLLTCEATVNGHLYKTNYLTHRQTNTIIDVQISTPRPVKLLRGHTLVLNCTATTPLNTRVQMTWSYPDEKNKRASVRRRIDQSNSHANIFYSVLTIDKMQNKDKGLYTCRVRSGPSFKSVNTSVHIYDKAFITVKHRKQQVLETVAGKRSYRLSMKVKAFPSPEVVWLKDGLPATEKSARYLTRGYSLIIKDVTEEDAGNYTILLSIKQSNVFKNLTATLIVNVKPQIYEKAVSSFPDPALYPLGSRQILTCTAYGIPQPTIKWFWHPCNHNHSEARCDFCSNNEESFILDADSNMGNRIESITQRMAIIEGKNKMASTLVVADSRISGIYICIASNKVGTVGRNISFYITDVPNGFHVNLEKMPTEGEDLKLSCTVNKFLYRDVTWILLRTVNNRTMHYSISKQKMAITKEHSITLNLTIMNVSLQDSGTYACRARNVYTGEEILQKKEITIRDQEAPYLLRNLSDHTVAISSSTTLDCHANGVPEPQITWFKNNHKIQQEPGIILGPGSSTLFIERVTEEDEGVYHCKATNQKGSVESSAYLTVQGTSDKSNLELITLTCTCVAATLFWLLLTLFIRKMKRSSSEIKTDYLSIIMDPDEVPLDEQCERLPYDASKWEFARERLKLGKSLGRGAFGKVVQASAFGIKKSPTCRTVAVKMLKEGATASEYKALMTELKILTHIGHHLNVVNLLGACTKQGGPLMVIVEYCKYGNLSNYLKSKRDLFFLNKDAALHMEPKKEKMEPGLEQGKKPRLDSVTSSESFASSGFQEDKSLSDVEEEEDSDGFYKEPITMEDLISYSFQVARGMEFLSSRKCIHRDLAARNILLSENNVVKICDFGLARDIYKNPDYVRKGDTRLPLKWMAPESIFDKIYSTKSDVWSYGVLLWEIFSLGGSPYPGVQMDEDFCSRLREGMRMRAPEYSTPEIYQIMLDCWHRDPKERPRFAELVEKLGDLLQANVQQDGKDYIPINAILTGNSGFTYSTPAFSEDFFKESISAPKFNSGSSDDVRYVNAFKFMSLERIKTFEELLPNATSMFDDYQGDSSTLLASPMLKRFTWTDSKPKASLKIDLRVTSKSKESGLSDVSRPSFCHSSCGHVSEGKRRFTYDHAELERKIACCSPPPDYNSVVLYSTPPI", "assay": "Binding and competition assays using ELISA"}, "[5]": {"test_system": "HUVECS stimulated with vegf", "assay": "Endothelial cell proliferation assay using CFDA", "type": "cell-based, human", "details": "30 ug/ml; listed as wt CPMV", "protocol": "Measure in vitro angiogenesis by endothelial cell proliferation assay. HUVECs were plated in 96 well plates at 10^4 cells/well in 200 ul EGM2 complete medium. Cells were incubated for 24 h at 37° C. in 5% CO2. cells were then washed once in PBS and incubated in serum free, glucose free medium for 24 h to suppress cell growth. Further, the cells were exposed to various treatments like 10% FBS or VEGF165 in the presence or absence of the targeting CPMV chimeras. Wild type CPMV was used as a control. After 48 h incubation, 1 μl of CFDA was added to the wells and the plated were incubated for additional 24 h. The cells were then placed on ice, washed in PBS 3× and finally fixed in cold 10% TCA for 10 minutes. After washing, the cells were lysed and the CFDA incorporation was read at 488 nm."}, "[6]": {"test_system": "cowpea plants", "assay": "Infectivity of CPMV following incubation with blood plasma or serum", "set-up": "species or system Vigna unguiculata", "details": "day 7", "protocol": "Infectivity of CPMV following incubation with blood. Whole blood samples were obtained from mice following cardiac puncture either with or without heparin. Samples were incubated at 4° C. overnight and then spun at 15,000 rpm for 10 minutes. Blood plasma or serum were recovered and incubated with CPMV (15 ug) in a one to one (v/v) ratio at 37° C. for 30 minutes while a control CPMV sample was incubated with PBS. Primary leaves from 7-day-old cowpea plants were then bruised with carborundum and inoculated with samples (at a concentration of 3 μg CPMV per leaf, or 300-fold more virus than is required to produce lesions) and observed daily for infection-induced mosaic symptoms."}, "[7]": {"target": "KDR receptor (VEGFR2) (Homo sapiens, UniProt P35968)", "sequence (P35968 20-1356)": "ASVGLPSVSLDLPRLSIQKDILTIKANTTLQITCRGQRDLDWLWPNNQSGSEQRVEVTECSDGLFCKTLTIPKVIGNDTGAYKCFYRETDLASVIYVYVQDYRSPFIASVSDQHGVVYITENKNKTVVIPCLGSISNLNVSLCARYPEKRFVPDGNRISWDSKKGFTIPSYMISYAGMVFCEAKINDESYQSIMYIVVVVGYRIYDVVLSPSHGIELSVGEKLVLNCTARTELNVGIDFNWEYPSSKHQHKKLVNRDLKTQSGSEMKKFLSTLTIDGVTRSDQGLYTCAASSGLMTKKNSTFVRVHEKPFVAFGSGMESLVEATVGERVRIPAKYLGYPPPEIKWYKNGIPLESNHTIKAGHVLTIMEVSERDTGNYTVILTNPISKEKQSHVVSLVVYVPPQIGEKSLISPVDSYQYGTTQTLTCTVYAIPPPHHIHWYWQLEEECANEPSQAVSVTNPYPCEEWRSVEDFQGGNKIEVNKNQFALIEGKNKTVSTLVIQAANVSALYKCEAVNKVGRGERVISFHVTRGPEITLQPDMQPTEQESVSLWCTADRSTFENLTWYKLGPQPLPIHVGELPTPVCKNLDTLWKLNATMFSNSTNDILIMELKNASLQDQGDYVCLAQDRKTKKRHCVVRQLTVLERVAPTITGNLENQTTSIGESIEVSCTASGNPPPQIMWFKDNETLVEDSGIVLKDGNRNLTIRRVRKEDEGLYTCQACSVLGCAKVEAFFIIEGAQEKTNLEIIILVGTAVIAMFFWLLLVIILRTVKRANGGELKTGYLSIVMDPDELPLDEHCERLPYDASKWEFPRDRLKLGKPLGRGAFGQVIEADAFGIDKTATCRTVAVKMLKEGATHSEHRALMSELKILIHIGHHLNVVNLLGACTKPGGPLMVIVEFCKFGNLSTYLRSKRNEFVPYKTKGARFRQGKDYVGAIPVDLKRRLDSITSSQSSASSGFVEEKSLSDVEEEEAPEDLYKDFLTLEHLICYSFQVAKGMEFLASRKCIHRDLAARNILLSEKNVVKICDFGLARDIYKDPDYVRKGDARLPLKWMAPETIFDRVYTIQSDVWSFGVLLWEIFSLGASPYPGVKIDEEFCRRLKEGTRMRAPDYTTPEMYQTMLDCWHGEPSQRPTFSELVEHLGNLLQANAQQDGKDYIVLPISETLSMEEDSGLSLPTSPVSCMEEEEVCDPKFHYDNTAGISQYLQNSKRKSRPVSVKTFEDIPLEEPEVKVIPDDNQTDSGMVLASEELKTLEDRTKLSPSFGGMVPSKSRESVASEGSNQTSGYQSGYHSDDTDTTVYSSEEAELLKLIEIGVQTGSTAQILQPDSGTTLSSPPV", "assay": "Binding assay using ELISA"}}}
{"substance": "cowpea mosaic virus [CPMV]", "values": [{"measurement": "integrity on Coomassie-stained gel after SGF", "setting": "[1]; SGF, pepsin pH 2.0, 37° C., 0-60 minutes", "result": "remained intact"}, {"measurement": "integrity on Coomassie-stained gel after SIF", "setting": "[1]; SIF, pancreatin pH 6.8, up to 120 minutes", "result": "remained intact"}, {"measurement": "CPMV RNA in the blood", "setting": "[2]; oral gavage, 4 hours, 1 day, 2 days, 3 days", "result": "detected in the blood of all orally gavaged mice"}, {"measurement": "CPMV RNA detected in bone marrow, mice positive/examined", "setting": "[2]; D1, Non-perfused", "result": "3/3"}, {"measurement": "CPMV RNA detected in brain, mice positive/examined", "setting": "[2]; D1, Non-perfused", "result": "3/3"}, {"measurement": "CPMV RNA detected in duodenum, mice positive/examined", "setting": "[2]; D1, Non-perfused", "result": "3/3"}, {"measurement": "CPMV RNA detected in ileum, mice positive/examined", "setting": "[2]; D1, Non-perfused", "result": "3/3"}, {"measurement": "CPMV RNA detected in jejunum, mice positive/examined", "setting": "[2]; D1, Non-perfused", "result": "3/3"}, {"measurement": "CPMV RNA detected in kidney, mice positive/examined", "setting": "[2]; D1, Non-perfused", "result": "3/3"}, {"measurement": "CPMV RNA detected in liver, mice positive/examined", "setting": "[2]; D1, Non-perfused", "result": "3/3"}, {"measurement": "CPMV RNA detected in lung, mice positive/examined", "setting": "[2]; D1, Non-perfused", "result": "3/3"}, {"measurement": "CPMV RNA detected in spleen, mice positive/examined", "setting": "[2]; D1, Non-perfused", "result": "3/3"}, {"measurement": "CPMV RNA detected in stomach, mice positive/examined", "setting": "[2]; D1, Non-perfused", "result": "3/3"}, {"measurement": "CPMV RNA detected in bone marrow, mice positive/examined", "setting": "[2]; D1, Perfused", "result": "2/3"}, {"measurement": "CPMV RNA detected in brain, mice positive/examined", "setting": "[2]; D1, Perfused", "result": "3/3"}, {"measurement": "CPMV RNA detected in duodenum, mice positive/examined", "setting": "[2]; D1, Perfused", "result": "3/3"}, {"measurement": "CPMV RNA detected in ileum, mice positive/examined", "setting": "[2]; D1, Perfused", "result": "3/3"}, {"measurement": "CPMV RNA detected in jejunum, mice positive/examined", "setting": "[2]; D1, Perfused", "result": "3/3"}, {"measurement": "CPMV RNA detected in kidney, mice positive/examined", "setting": "[2]; D1, Perfused", "result": "3/3"}, {"measurement": "CPMV RNA detected in liver, mice positive/examined", "setting": "[2]; D1, Perfused", "result": "3/3"}, {"measurement": "CPMV RNA detected in lung, mice positive/examined", "setting": "[2]; D1, Perfused", "result": "3/3"}, {"measurement": "CPMV RNA detected in spleen, mice positive/examined", "setting": "[2]; D1, Perfused", "result": "3/3"}, {"measurement": "CPMV RNA detected in stomach, mice positive/examined", "setting": "[2]; D1, Perfused", "result": "2/3"}, {"measurement": "CPMV RNA detected in bone marrow, mice positive/examined", "setting": "[2]; D2, Non-perfused", "result": "0/3"}, {"measurement": "CPMV RNA detected in brain, mice positive/examined", "setting": "[2]; D2, Non-perfused", "result": "1/3"}, {"measurement": "CPMV RNA detected in duodenum, mice positive/examined", "setting": "[2]; D2, Non-perfused", "result": "1/3"}, {"measurement": "CPMV RNA detected in ileum, mice positive/examined", "setting": "[2]; D2, Non-perfused", "result": "3/3"}, {"measurement": "CPMV RNA detected in jejunum, mice positive/examined", "setting": "[2]; D2, Non-perfused", "result": "0/3"}, {"measurement": "CPMV RNA detected in kidney, mice positive/examined", "setting": "[2]; D2, Non-perfused", "result": "0/3"}, {"measurement": "CPMV RNA detected in liver, mice positive/examined", "setting": "[2]; D2, Non-perfused", "result": "3/3"}, {"measurement": "CPMV RNA detected in lung, mice positive/examined", "setting": "[2]; D2, Non-perfused", "result": "1/3"}, {"measurement": "CPMV RNA detected in spleen, mice positive/examined", "setting": "[2]; D2, Non-perfused", "result": "1/3"}, {"measurement": "CPMV RNA detected in stomach, mice positive/examined", "setting": "[2]; D2, Non-perfused", "result": "1/3"}, {"measurement": "CPMV RNA detected in bone marrow, mice positive/examined", "setting": "[2]; D2, Perfused", "result": "0/3"}, {"measurement": "CPMV RNA detected in brain, mice positive/examined", "setting": "[2]; D2, Perfused", "result": "1/3"}, {"measurement": "CPMV RNA detected in duodenum, mice positive/examined", "setting": "[2]; D2, Perfused", "result": "1/3"}, {"measurement": "CPMV RNA detected in ileum, mice positive/examined", "setting": "[2]; D2, Perfused", "result": "1/3"}, {"measurement": "CPMV RNA detected in jejunum, mice positive/examined", "setting": "[2]; D2, Perfused", "result": "1/3"}, {"measurement": "CPMV RNA detected in kidney, mice positive/examined", "setting": "[2]; D2, Perfused", "result": "3/3"}, {"measurement": "CPMV RNA detected in liver, mice positive/examined", "setting": "[2]; D2, Perfused", "result": "3/3"}, {"measurement": "CPMV RNA detected in lung, mice positive/examined", "setting": "[2]; D2, Perfused", "result": "2/3"}, {"measurement": "CPMV RNA detected in spleen, mice positive/examined", "setting": "[2]; D2, Perfused", "result": "0/3"}, {"measurement": "CPMV RNA detected in stomach, mice positive/examined", "setting": "[2]; D2, Perfused", "result": "1/3"}, {"measurement": "CPMV RNA detected in bone marrow, mice positive/examined", "setting": "[2]; D3, Non-perfused", "result": "1/3"}, {"measurement": "CPMV RNA detected in brain, mice positive/examined", "setting": "[2]; D3, Non-perfused", "result": "3/3"}, {"measurement": "CPMV RNA detected in duodenum, mice positive/examined", "setting": "[2]; D3, Non-perfused", "result": "2/3"}, {"measurement": "CPMV RNA detected in ileum, mice positive/examined", "setting": "[2]; D3, Non-perfused", "result": "2/3"}, {"measurement": "CPMV RNA detected in jejunum, mice positive/examined", "setting": "[2]; D3, Non-perfused", "result": "2/3"}, {"measurement": "CPMV RNA detected in kidney, mice positive/examined", "setting": "[2]; D3, Non-perfused", "result": "1/3"}, {"measurement": "CPMV RNA detected in liver, mice positive/examined", "setting": "[2]; D3, Non-perfused", "result": "2/2"}, {"measurement": "CPMV RNA detected in lung, mice positive/examined", "setting": "[2]; D3, Non-perfused", "result": "1/3"}, {"measurement": "CPMV RNA detected in spleen, mice positive/examined", "setting": "[2]; D3, Non-perfused", "result": "0/3"}, {"measurement": "CPMV RNA detected in stomach, mice positive/examined", "setting": "[2]; D3, Non-perfused", "result": "3/3"}, {"measurement": "CPMV RNA detected in bone marrow, mice positive/examined", "setting": "[2]; D3, Perfused", "result": "0/3"}, {"measurement": "CPMV RNA detected in brain, mice positive/examined", "setting": "[2]; D3, Perfused", "result": "2/3"}, {"measurement": "CPMV RNA detected in duodenum, mice positive/examined", "setting": "[2]; D3, Perfused", "result": "0/2"}, {"measurement": "CPMV RNA detected in ileum, mice positive/examined", "setting": "[2]; D3, Perfused", "result": "1/3"}, {"measurement": "CPMV RNA detected in jejunum, mice positive/examined", "setting": "[2]; D3, Perfused", "result": "0/2"}, {"measurement": "CPMV RNA detected in kidney, mice positive/examined", "setting": "[2]; D3, Perfused", "result": "2/3"}, {"measurement": "CPMV RNA detected in liver, mice positive/examined", "setting": "[2]; D3, Perfused", "result": "3/3"}, {"measurement": "CPMV RNA detected in lung, mice positive/examined", "setting": "[2]; D3, Perfused", "result": "1/3"}, {"measurement": "CPMV RNA detected in spleen, mice positive/examined", "setting": "[2]; D3, Perfused", "result": "0/3"}, {"measurement": "CPMV RNA detected in stomach, mice positive/examined", "setting": "[2]; D3, Perfused", "result": "0/3"}, {"measurement": "infectivity on cowpea plants after SGF or SIF", "setting": "[3]", "result": "infectivity similar to untreated CPMV"}, {"measurement": "binding to Flt-1 receptor in ELISA", "setting": "[4]", "result": "did not show any detectable binding"}, {"measurement": "effect on cell growth/proliferation", "setting": "[5]", "result": "did not affect cell growth/proliferation"}, {"measurement": "lesions on primary leaves, plasma-incubated virus", "setting": "[6]; 30 minutes at 37° C.", "result": 6, "unit": "lesions per cm"}, {"measurement": "lesions on primary leaves, serum-incubated virus", "setting": "[6]; 30 minutes at 37° C.", "result": "less than 1 lesion per cm^2"}, {"measurement": "lesions on primary leaves, control infection (PBS)", "setting": "[6]", "result": "too many lesions to count"}, {"measurement": "binding to KDR receptor in ELISA", "setting": "[7]", "result": "did not show any detectable binding"}]}
